Experimental data taken from patent US12071438B2, “Crystal forms of an ALK2 inhibitor” (Keros Therapeutics, Inc., priority 2018, dated 2024).

Assays:
Assay type in all cases: physicochemical
[1] = 97% RH stress in polymorph screening study; conditions: RT, no solvent
[2] = Dynamic vapor sorption/desorption (DVS); conditions: for hygroscopicity by DVS / DVS weight gain and loss: 25° C.; for hygroscopicity by DVS: 0-95% RH; for DVS weight gain and loss: adsorption 0-95% RH, desorption to 0% RH
Procedure: (§1) Dynamic vapor sortion/desportion (DVS) analysis was conducted with a Hiden Isochema, IGAsorp, s/n IGSA 126. Samples were loaded in to a tared basket on the instrument and dried for 1 hour at 40° C. Samples were then analyzed at 25° C. with the following percent relative humidity (% RH) steps: Adsorption (% RH): 0.0, 10.0, 20.0, 30.0, 40.0, 50.0, 60.0, 70.0, 80.0, 90.0, 95.0, Desorption (% RH): 90.0, 80.0, 70.0, 60.0, 50.0, 40.0, 30.0, 20.0, 10.0, 0.0.

XRPD analysis after DVS = conditions: post-DVS
Procedure: X-ray powder diffraction (XRPD) patterns were collected on a Bruker D8 diffractometer using Cu Kα radiation (40 kV, 40 mA), θ-2θ goniometer and divergence of 0.6 mm and receiving slits, and a Lynxeye detector. The instrument is performance checked using a certified Corundum standard (NIST 1976). The software used for data collection was Diffrac Plus XRD Commander v2.6.1 and the data were analyzed and presented using Materials Data Jade Software v 9.7.0. Samples were prepared by transferring 2 to 50 mg of sample to a zero background holder coated with a thin layer of petroleum jelly and leveled with a glass plate and analyzed at ambient temperature. The sample was rotated in its own plane during analysis.
as §1

[3] = Form A and Form B competitive slurries (thermodynamically stable polymorph)
Procedure: To determine the thermodynamically stable polymorph between anhydrous Forms A and B, competitive slurries were conducted in three different solvent systems: ethanol, tetrahydrofuran, and 2-butanone (MEK)/water (95:5). Ethanol and tetrahydrofuran were chosen based on the solubility of the material. MEK was chosen as a potential process solvent and water was added to boost the solubility.
Thus, additional competitive slurries were conducted in three additional solvent systems: ethanol/heptane (1:5), ethyl acetate/water (97:3), and isopropanol/water (99:1). The ethanol/heptane system was evaluated at −15° C., 5° C., ambient (RT), and 40° C. The water containing systems were only evaluated at ambient temperature. The slurries were conducted for 7 days instead of 5 days, as done in the above slurries. Form D was also included in the competitive slurries containing water.

Row | hygroscopicity by DVS [2] | DVS weight gain and loss [2] [%] | XRPD after DVS analysis (form change) (XRPD analysis after DVS) | SMILES | also measured
1 | – | – | – | COc1cc2c(-c3cnn4cc(N5CCC(N6CCN(C)CC6)CC5)cnc34)ccnc2cc1F | XRPD Result [1]: Form C,
2 | slightly hygroscopic | 12 | consistent with Form B | COc1cc2c(-c3cnn4cc(N5CCC(N6CCN(C)CC6)CC5)cnc34)ccnc2cc1F [Form B] | moisture gain onset in DVS ([2]; low relative humidities): begins immediately even at low relative humidities
3 | – | – | – | COc1cc2c(-c3cnn4cc(N5CCC(N6CCN(C)CC6)CC5)cnc34)ccnc2cc1F [Form C] | thermodynamic stability at high water activity ([3]; high water activity (97:3 EtOAc/water)): more favored
4 | non-hygroscopic | 0.5 | No change | COc1cc2c(-c3cnn4cc(N5CCC(N6CCN(C)CC6)CC5)cnc34)ccnc2cc1F [compound of Formula I free base, 7-fluoro-6-methoxy-4-(6-(4-(4-methylpiperazin-1-yl)piperidin-1-yl)pyrazolo[1,5-a]pyrimidin-3-yl)quinoline] | –

Row | SMILES | hygroscopicity by DVS [2] | DVS weight gain and loss [2] [%] | XRPD after DVS analysis (form change) (XRPD analysis after DVS) | also measured
5 | COc1cc2c(-c3cnn4cc(N5CCC(N6CCN(C)CC6)CC5)cnc34)ccnc2cc1F [Form A] | hygroscopic | 38 | becomes highly disordered and converts to the hydrate, Form C | hygroscopicity by DVS below 80% RH ([2]; below 80% RH): non-hygroscopic; polymorph stability over time (competitive slurries) ([3]; 40° C. down to −15° C., 7 days versus 5 days): most stable polymorph; thermodynamic stability at low water activity ([3]; low water activity (99:1 IPA/water)): most thermodynamically stable
